Reference: patent US9206206B2, “Oxidized lipid compounds and uses thereof” (Vascular Biogenics Ltd., priority 2008, dated 2015)
Several values for one entry are separate records, joined by “and”; a condition that tells them apart may be missing. Identical values can stand only once. Entries after “also recorded” stand apart in the source; their conditions may differ.

Assays:
[1] = system: tyrosine phosphorylation in primary macrophages; test: Tyrosine phosphorylation assay in primary macrophages (Western blot); format: cell-based, mouse
Method: (§1) Tyrosine Phosphorylation Assay: Tyrosine phosphorylation in macrophages or bone marrow-derived cells (BMDCs) of mice was assayed. Mouse primary macrophages were isolated from the peritoneum of 7-8 week old C57BL/6 female mice following thioglycollate stimulation. […] Mouse primary bone marrow-derived cells were isolated by flushing bone marrow out of the femur and tibia of female SJL mice using cold RPMI-1640. […] Cells were then washed, resuspended in the same buffer and depleted of B and T cells on a Midi-Macs separation unit through a LD or LS column (Miltenyi Biotech). […] The medium was replaced every other day. […] Proteins with phosphorylated tyrosine were then observed by Western blot, using a monoclonal anti-phosphotyrosine antibody. Western blotting for ERK1/2 or α-tubulin was performed as a control for protein loading.

IL12/23 p40 = test: In vitro IL12/23p40 production assay; format: cell-based, mouse; conditions: bone marrow-derived cells
Method: In Vitro IL12/23p40 Production Assay:
Bone marrow derived cells (BMDCs) were obtained from the femur and tibia of female C57BL mice, cultured, and seeded at a concentration of 10^6 cells/ml 5-6 days post-culturing, as described hereinabove for the tyrosine phosphorylation assay.
The tested compound was then added to the cells for 1 hour at a concentration of 1, 2.5, 5, 10 or 20 μg/ml. The cells were activated for IL12/23p40 production by incubation for 24 hours with 10 μg/ml peptidoglycan (PGN). Cytokine production from the supernatant was measured by ELISA. Activated cells without the tested compound were used as the control.

[2] = system: mouse peritoneal macrophages; test: In vitro toxicity assay; format: cell-based; conditions: for LD50: crystal violet cell number
Method: Thioglycollate-elicited mouse peritoneal macrophages were washed, counted and seeded (2×10^5 to 3×10^5 cells per well in 24-well plates) in triplicate wells in medium containing RPMI-1640, L-glutamine, 10% FBS and antibiotics (penicillin/streptomycin). After a recovery period of 24 hours, the tested compound (or controls) was added to the cell medium at doses of 2, 10, 20, 50, 100 or 150 μg/ml, keeping the added volume equal in all treatments by complementing the volume with solvent.
Following addition of the compounds, the cells were incubated for an additional 24 hours, after which the cells were washed, fixed with a solution of 10% methanol/10% acetic acid and stained with crystal violet (0.4% in 20% ethanol). Cell numbers were measured by determining optical density at 595 nm. Cells incubated with vehicle (PBS with 1% ethanol) were used as a control, to which cell numbers in treated samples were normalized.
Data are presented as mean±standard deviation. Statistical significance relative to vehicle-treated cells was calculated using a student's t-test, with p-values of less than 0.05 being considered as indicating statistical significance.

[3] = system: tyrosine phosphorylation in bone marrow-derived cells; test: Tyrosine phosphorylation assay in bone marrow-derived cells (Western blot); format: cell-based, mouse
Method: as §1

IL12/23 p40 mRNA = test: In vitro IL12/23 p40 mRNA expression assay; format: cell-based, mouse; conditions: CD11c+ dendritic cells, 20 μg/ml, 10 μg/ml peptidoglycan, 2-4 hours following administration
Method: In Vitro IL12/23 p40 mRNA Expression Assay:
Bone marrow-derived cell cultures were prepared as described hereinabove. On days 5-6 post culturing, the cell cultures were enriched for CD11c+ dendritic cells (>90%) with mouse CD11c microbeads over MS or LS columns (Miltenyi Biotech). CD11c+ dendritic cells were stimulated for 1, 2 and 3 hours with 10 μg/ml peptidoglycan alone or in the presence of 20 μg/ml of the tested compound added 1 hour before activation. RNA was extracted from cells using RNeasy mini kit (Qiagen, Valencia, Calif.). For cDNA preparation, 1 μg of RNA was combined with Oligo dT for 10 minutes at 70° C., 1st strand buffer. Dithiothreitol and dNTP and super-script reverse transcriptase (Invitrogen, Carlsbad, Calif.) were added for 50 minutes at 42° C. and the reaction was ended by incubation for an additional 15 minutes at 70° C. All real time PCR reactions were performed using LightCycler Taqman master (Roche Diagnostics, Mannheim, Germany) and run on the LightCycler machine (Roche). Ready sets of probe with primers were used for IL12/23 p40 and GAPDH assays (Applied Biosystems, assays #Mm01288992_m1 and Mm99999915_g1, respectively) with the latter served to normalize RNA levels. 20 μg/ml CI-201 and phosphatidylcholine (PC) were used as positive and negative controls respectively.

LDL-RD male mice = test: In vivo atherosclerotic lesion assay, LDL-RD mice; conditions: 1 mg/mouse (60 mg/kg) orally, 5 treatments every other day, western diet 5 weeks, aortic sinus
Method: (§2) In Vivo Atherosclerotic Lesion Assay:
12-16-week old LDL-RD male mice were orally administered with 0.2 ml of PBS or PBS with an indicated amount of the tested compound, once a day, every other day, for 5 treatments. The mice were challenged with western diet for 5 weeks and then sacrificed.
(§3) The quantification of atherosclerotic lesions was done by calculating the lesion size in the aortic sinus as previously described [Paigen et al., Quantitative assessment of atherosclerotic lesions in mice. Atherosclerosis 1987; 68:231-240] with a few modifications. Briefly, the heart and the aorta were removed from the animals, and the peripheral fat was cleaned carefully. The hearts were embedded in Optimal Cutting Temperature (OCT) gel and frozen. Aortic sinus lesion was determined from 3-8 Oil red O-stained serial sections (10 μm thick), throughout the aortic sinus (400 μm). The lesion area was calculated using a computer analyzing method (Image Pro Plus software [version 4.5.1.29], Medical Cybernetics Corporation).

ApoE KO mice = test: In vivo atherosclerotic lesion assay, ApoE KO mice; conditions: 1 mg/mouse (40 mg/kg) orally, 5 treatments every other day, sacrificed by the end of 8 weeks, aortic sinus
Method: as §2
Alternatively, 14-16-week old ApoE KO mouse were orally administered with 0.2 ml of PBS or PBS with an indicated amount of the tested compound, once a day, every other day, for 5 treatments, and sacrificed by the end of 8 weeks.
as §3

[4] = compound 1, 2.5, 5, 10 or 20 μg/ml for 1 hour, then 10 μg/ml peptidoglycan 24 hours, ELISA
[5] = peritoneal macrophages, 24 hours
[6] = peritoneal macrophages, 24 hours, doses 2-150 μg/ml

With `CCCCCCCCCCCCCCCCOCC(COP(=O)(O)OCCNC(=O)CCCC(=O)O)OCCCCC(=O)O` (stereo not shown) [CI-210, 1-hexadecyl-2-(4-carboxy)butyl-glycero-3-phosphoethanolamine-N-glutaric acid] the phosphotyrosine levels ([1]; 20 μg/ml, 10 minutes) was “induced an increase in phosphotyrosine levels”, the “production of IL12/23 p40” value (IL12/23 p40; [4]) was “inhibited production of IL12/23 p40 by bone marrow-derived cells in a dose-dependent manner” and the “dose at which (significant) toxicity was detected” value ([2]; mouse, 24 h) was ≥ 100 µg/mL. For the same molecule, the “dose at which significant toxicity was observed” value ([2]; mouse, 24 h) was ≥ 156.6 µM and the LD50 [2, 5] was “approximately 150 μg/ml and ~235 μM”.
`CCCCCCCCCCCCCCCCOCC(COP(=O)([O-])OCC[N+](C)(C)C)OCCCCCCC(=O)O` (stereo not shown) [CI-203, 1-Hexadecyl-2-(6-carboxy)hexanyl-glycero-3-phosphocholine] was tested, and the phosphotyrosine levels ([3]; 1 μg/ml (1.7 μM)) was “no apparent effect”, the “production of IL12/23 p40” value (IL12/23 p40; [4]) was “inhibited production of IL12/23 p40 by bone marrow-derived cells in a dose-dependent manner” and the “dose at which (significant) toxicity was detected” value [2, 6] was 100 µg/mL.
`CCCCCCCCCCCCCCCCOCC(COP(=O)([O-])OCC[N+](C)(C)C)OCCCC(=O)O` (stereo not shown) [CI-205, 1-hexadecyl-2-(3-carboxy)propyl-glycero-3-phosphocholine] was tested, and the phosphotyrosine levels ([1]; 20 μg/ml, 10 minutes) was “causes reduction in phosphotyrosine levels”, the “dose at which (significant) toxicity was detected” value [2, 6] was 100 µg/mL and the “dose at which toxicity was detected in only one experiment” value (from here on “dose at which toxicity was detected”) ([2]; peritoneal macrophages, 24 hours, only one of two experiments) was 20 to 50 µg/mL.
For `CCCCCCCCCCCCCCCCOC[C@H](COP(=O)([O-])OCC[N+](C)(C)C)OCCCCC(=O)O` [CI-201, 1-hexadecyl-2-(4-carboxy)butyl-sn-glycero-3-phosphocholine, reference compound], the phosphotyrosine levels ([1]; 20 ng/ml) was “reduction”, the phosphotyrosine levels ([1]; 10 μg/ml, 10 minutes) was “caused an increase in phosphotyrosine levels” and the phosphotyrosine levels ([1]; 20 μg/ml, 10 minutes) was “caused a decrease in phosphotyrosine levels; also recorded: caused a reduction in phosphotyrosine levels”. The “IL12/23 p40 mRNA expression” value (IL12/23 p40 mRNA) was “inhibition by CI-202 was comparable to the inhibition by CI-201”.
For `CCCCCCCCCCCCCCCCOC[C@H](COP(=O)([O-])OCC[N+](C)(C)C)OCCCCC(O)CO` (stereo partly shown) [di-OH, 1-Hexadecyl-2-(5,6-dihydroxy)hexanyl-glycero-3-phosphocholine], the “decrease of atherosclerotic lesion area as compared to the control (PBS)” value (LDL-RD male mice) was 25% and the “dose at which (significant) toxicity was detected” value [2, 6] was ≥ 20 µg/mL.
For `CCCCCCCCCCCCCCCCOCC(COP(=O)([O-])OCC[N+](C)(C)C)OCCCCCCC(=O)O` (racemic) [racemic CI-203, 1-hexadecyl-2-(6-carboxy)hexanyl-glycero-3-phosphocholine], the phosphotyrosine levels ([3]; 20 μg/ml (33 μM)) was “caused a reduction in phosphotyrosine levels”.
In the case of `CCCCCCCCCCCCOCC(COP(=O)([O-])OCC[N+](C)(C)C)OCCCCC(=O)O` (stereo not shown) [CI-209, 1-dodecyl-2-(4-carboxy)butyl-glycero-3-phosphocholine], the phosphotyrosine levels ([1]; 20 μg/ml, 10 minutes) is reported as “induced an increase in phosphotyrosine levels”, the “production of IL12/23 p40” value (IL12/23 p40; [4]) is reported as “inhibited production of IL12/23 p40 by bone marrow-derived cells in a dose-dependent manner” and the LD50 [2, 5] is reported as “above 150 μg/ml and > 286 μM”. The “toxicity within the range of tested doses” value ([2]; peritoneal macrophages, 24 hours, up to 150 μg/ml) was “toxicity of CI-209 was not observed at any of the tested doses”.
For `CCCCCCCCCCCCCCCCOCC(COP(=O)(O)OCCN)OCCCC(=O)O` (stereo not shown) [CI-206, 1-hexadecyl-2-(3-carboxy)propyl-glycero-3-phosphoethanolamine], the phosphotyrosine levels ([1]; 20 μg/ml, 10 minutes) was “causes reduction in phosphotyrosine levels” and the “dose at which (significant) toxicity was detected” value ([2]; mouse, 24 h) was ≥ 50 µg/mL.
With `CCCCCCCCCCCCCCCCOCC(COP(=O)(O)O)OCCCCC(=O)O` (stereo not shown) [CI-201-PA, 1-hexadecyl-2-(4-carboxy)butyl-glycero-3-phosphate] the “dose at which (significant) toxicity was detected” value ([2]; mouse, 24 h) was ≥ 20 µg/mL, the “dose at which toxicity was detected” value ([2]; mouse, 24 h) was 10 µg/mL and the LD50 [2, 5] was “approximately 50 μg/ml”.
With `CCCCCCCCCCCCCCCCOCC(COP(=O)([O-])OCC[N+](C)(C)C)OCCCCC(OC)OC` (stereo not shown) [diMeAc, 1-hexadecyl-2-(5′,5′-dimethoxypentyl)-glycero-3-phosphocholine] the “decrease of atherosclerotic lesion area as compared to the control (PBS)” value (ApoE KO mice) was 23%.
For `CCCCCCCCCCCCCCCCCCOCC(COP(=O)(O)OCCN)OCCCCC(=O)O` (stereo not shown) [CI-216, 1-octadecyl-2-(4-carboxy)butyl-glycero-3-phosphoethanolamine], the phosphotyrosine levels ([1]; 10 μg/ml, 10 minutes) was “induction of tyrosine phosphorylation”, the phosphotyrosine levels ([1]; 20 μg/ml, 10 minutes) was “reduction in phosphotyrosine levels” and the “production of IL12/23 p40” value (IL12/23 p40; 20 μg/ml) was “inhibited production of IL12/23 p40 by bone marrow-derived cells”.
With `CCCCCCCCCCCCCCCCOC[C@H](COP(=O)([O-])OCC[N+](C)(C)C)OCCCCCCC(=O)O` [(R)-CI-203, (R)-1-hexadecyl-2-(6-carboxy)hexanyl-sn-glycero-3-phosphocholine] the phosphotyrosine levels ([3]; 20 μg/ml (33 μM)) was “caused a reduction in phosphotyrosine levels”.
With `CCCCCCCCCCCCCCCCOCC(COP(=O)([O-])OCC[N+](C)(C)C)OCCCCC(=O)OC` (stereo not shown) [CI-208, 1-hexadecyl-2-(4-methylcarboxy)butyl-glycero-3-phosphocholine] the phosphotyrosine levels ([1]; 20 ng/ml) was “causes a reduction in phosphotyrosine levels, which is stronger than the reduction caused by treatment with 20 ng/ml of the CI-201 control” and the “dose at which toxicity was detected” value ([2]; mouse, 24 h) was 20 µg/mL.
